According to patent US20100081679A1, “DIAMINOPYRIMIDINES AS FUNGICIDES” (Bayer CropScience AG, priority 2007, published 2010):
Marks after values point to notes of the source that are not given here.

Test: logP determination via retention times, calibrated with unbranched alkan-2-ones
Type: physicochemical
Details: HPLC on reversed-phase C 18, EEC Directive 79/831 Annex V.A8; method **: 43° C., 0.1% aqueous phosphoric acid and acetonitrile, linear gradient 10% to 95% acetonitrile

SMILES	logP
Fc1ccc(Nc2ncc(C(F)(F)F)c(NC3CC3)n2)cc1 [compound 498]	2.96**

Same assay, conditions: HPLC on reversed-phase C 18, EEC Directive 79/831 Annex V.A8; method *: 40° C., 0.1% aqueous formic acid and acetonitrile, linear gradient 10% to 95% acetonitrile

SMILES	logP
FC(F)Sc1ccc(Nc2ncc(Cl)c(NCC3CC3)n2)cc1 [compound 559]	2.91*
CCN(C(C)=O)c1ccc(Nc2ncc(Cl)c(NCC3CC3)n2)cc1 [compound 506]	1.73*
CC(=O)c1cc(Nc2ncc(Cl)c(NCC3CC3)n2)ccc1O [compound 553]	1.85*
CC1CC(C)CN(c2cccc(Nc3ncc(Br)c(NC4CC4)n3)c2)C1 (stereo not shown) [compound 529]	2.63*
O=C(c1ccc(Nc2ncc(Br)c(NCC3CC3)n2)cc1)N1CCOCC1 [compound 484]	1.64*
CC(C)(C)OC(=O)Nc1ccc(Nc2ncc(Cl)c(NCC3CC3)n2)cc1 [compound 522]	2.18*
O=CNc1ccc(Nc2ncc(Cl)c(NCC3CC3)n2)cc1 [compound 544]	1.17*
COC(=O)Nc1cccc(Nc2ncc(Cl)c(NCC3CC3)n2)c1 [compound 515]	1.66*

Same assay, conditions: HPLC on reversed-phase C 18, method **: 43° C.; 0.1% aqueous phosphoric acid and acetonitrile; linear gradient 10% to 95% acetonitrile

SMILES	logP
CC(=O)Nc1ccc(Nc2ncc(C(F)(F)F)c(NC3CC3)n2)cc1 [compound 956]	1.64**

Same assay, conditions: HPLC on reversed-phase C18, method **: 43° C.; mobile phase 0.1% aqueous phosphoric acid and acetonitrile; linear gradient 10% to 95% acetonitrile

SMILES	logP
Nc1ccc(Nc2ncc(Cl)c(NC3CC3)n2)cc1 [compound 272]	0.48**
O=S(=O)(c1ccc(Nc2ncc(Cl)c(NC3CC3)n2)cc1)N1CCCC1 [compound 307]	2.52**
O=C1CCCN1c1ccc(Nc2ncc(C(F)(F)F)c(NC3CC3)n2)cc1 [compound 342]	2.12**

Same assay, conditions: HPLC on reversed-phase C18, method *: 40° C., 0.1% aqueous formic acid and acetonitrile, linear gradient 10% to 95% acetonitrile

SMILES	logP
COC(=O)Nc1ccc(Nc2ncc(C#N)c(NC3CC3)n2)cc1 [compound 159]	1.91*
Oc1ccc(Nc2ncc(Cl)c(NCC3CC3)n2)c(F)c1 [compound 694]	1.46*
CC(Nc1nc(Nc2ccc(F)cc2)ncc1Cl)C1CC1 (stereo not shown) [compound 167]	2.27*
CCCc1ccc(Nc2ncc(Cl)c(NC3CC3)n2)cc1 [compound 953]	2.5*
OC(c1cccc(Nc2ncc(Cl)c(NC3CC3)n2)c1)C(F)(F)F (racemic) [compound 961]	1.79*
O=C(Nc1ccccc1)Nc1ccc(Nc2ncc(Cl)c(NC3CC3)n2)cc1 [compound 739]	1.75*
COc1cc(Nc2ncc(C(F)(F)F)c(NC3CC3)n2)ccc1Cl [compound 700]	3.59*
CC(C)Sc1ccccc1Nc1ncc(Cl)c(NC2CC2)n1 [compound 885]	3.72*
Clc1cnc(Nc2ccc(-c3cscn3)cc2)nc1NCC1CC1 [compound 689]	2.06*
Cc1cc(F)ccc1Nc1ncc(Cl)c(NC2CC2)n1 [compound 945]	1.68*
CN1CC(=O)N(c2ccc(Nc3ncc(Cl)c(NC4CC4)n3)cc2)C1=O [Example 107]	1.29*
Brc1cnc(Nc2ccccc2)nc1NC1(COc2ccccc2)CC1 [compound 932]	3.03*

Same assay, conditions: HPLC on reversed-phase C18, method *: 40° C.; mobile phase 0.1% aqueous formic acid and acetonitrile; linear gradient 10% to 95% acetonitrile

SMILES	logP
COc1ccc(Nc2ncc(Cl)c(NC3CC3)n2)cc1OC [compound 279]	1.47*
O=S(=O)(c1cccc(Nc2ncc(Br)c(NC3CC3)n2)c1)N1CCCCC1 [compound 354]	2.16*
Nc1ccc(Nc2ncc(Cl)c(NC3CC3)n2)cc1 [compound 272]	0.45*;
CC1(c2ccc(Nc3ncc(Cl)c(NC4CC4)n3)cc2)CCCC1 [compound 310]	3.42*
CCCOc1cccc(Nc2ncc(Br)c(NC3CC3)n2)c1 [compound 336]	2.83*
COC(=O)Cc1cccc(Nc2ncc(Cl)c(NC3CC3)n2)c1 [compound 290]	1.73*

Same assay, conditions: HPLC on reversed-phase C18 column (EEC Directive 79/831 Annex V.A8); method **: 43° C.; 0.1% aqueous phosphoric acid and acetonitrile; linear gradient 10% to 95% acetonitrile

SMILES	logP
CSc1cccc(Nc2ncc(C(F)(F)F)c(NC3CC3)n2)c1 [compound 266]	3.49**

Same assay, conditions: HPLC on reversed-phase C18 column (EEC Directive 79/831 Annex V.A8); method *: 40° C.; 0.1% aqueous formic acid and acetonitrile; linear gradient 10% to 95% acetonitrile

SMILES	logP
O=S(=O)(c1cccc(Nc2ncc(C(F)(F)F)c(NCC3CC3)n2)c1)N1CCCCC1 [compound 209]	3.81*
CCC(=O)c1cc(Nc2ncc(Cl)c(NC3CC3)n2)ccc1O [compound 250]	1.99*
CS(=O)(=O)Nc1cccc(Nc2ncc(Cl)c(NC3CC3)n2)c1 [compound 242]	1.47*
O=C1CCCN1c1cc(Nc2ncc(C(F)(F)F)c(NC3CC3)n2)ccc1F [compound 265]	2.33*
N#CCC(=O)c1ccc(Nc2ncc(Cl)c(NC3CC3)n2)cc1 [compound 248]	2.09*
Oc1ccc(Nc2ncc(Cl)c(NC3CC3)n2)cc1C1CCCC1 [compound 187]	1.86*
CS(=O)(=O)c1cccc(Nc2ncc(Br)c(NC3CC3)n2)c1 [compound 254]	1.76*
CSc1cccc(Nc2ncc(C(F)(F)F)c(NC3CC3)n2)c1 [compound 266]	3.29*;

Same assay, conditions: HPLC reversed-phase C 18, EEC Directive 79/831 Annex V.A8; method **: 43° C., 0.1% aqueous phosphoric acid and acetonitrile, linear gradient 10% to 95% acetonitrile

SMILES	logP
Cc1nc(Nc2ccc(N3CCOC3=O)cc2)nc(NC2CC2)c1Cl [compound 840]	1.31**

Same assay, conditions: HPLC reversed-phase C 18, EEC Directive 79/831 Annex V.A8; method *: 40° C., 0.1% aqueous formic acid and acetonitrile, linear gradient 10% to 95% acetonitrile

SMILES	logP
CC(C)(C)CSCc1ccc(Nc2ncc(Cl)c(NC3CC3)n2)cc1 [compound 823]	3.78*
O=C(O)CCc1cccc(Nc2ncc(Cl)c(NC3CC3)n2)c1 [compound 795]	1.09*
CC(=O)Cc1cccc(Nc2ncc(C(F)(F)F)c(NC3CC3)n2)c1 [compound 783]	2.42*
CCc1cccc(Nc2ncc(Br)c(NC3CC3)n2)c1 [compound 775]	2.44*
CC(C)(C)c1cccc(Nc2ncc(Cl)c(NC3CC3)n2)c1 [compound 778]	2.9*
N#CCc1ccc(Nc2ncc(Cl)c(NC3CC3)n2)cc1 [compound 832]	1.59*

Same assay, conditions: method **: HPLC reversed-phase C 18, 43° C., 0.1% aqueous phosphoric acid and acetonitrile, linear gradient 10% to 95% acetonitrile

SMILES	logP
CCOC1(Nc2nc(Nc3ccccc3)ncc2Cl)CC1.Cl [compound 38]	2.23**
NS(=O)(=O)c1cccc(Nc2ncc(Cl)c(NCC3CC3)n2)c1 [Example 16]	1.51**
NS(=O)(=O)c1cc(Nc2ncc(Cl)c(NC3CC3)n2)cc(C(F)(F)F)c1 [compound 17]	2.48**
O=S(=O)(Nc1ccccc1)c1ccc(Nc2ncc(Cl)c(NC3CC3)n2)cc1 [compound 27]	2.56**

Same assay, conditions: method **: HPLC reversed-phase C 18, temperature 43° C.; mobile phase 0.1% aqueous phosphoric acid and acetonitrile; linear gradient 10% to 95% acetonitrile

SMILES	logP
COc1ccc(Nc2ncc(C(F)(F)F)c(NC3CC3)n2)cc1 [compound 641]	2.41**

Same assay, conditions: method **: HPLC, reversed-phase C 18, 43° C., mobile phase 0.1% aqueous phosphoric acid and acetonitrile, linear gradient from 10% to 95% acetonitrile

SMILES	logP
CSc1cccc(Nc2ncc(Cl)c(NC3CC3(C)C)n2)c1 (stereo not shown) [compound 1029]	3.07**
CC(=O)NS(=O)(=O)c1ccc(Nc2ncc(Cl)c(NC3CC3)n2)cc1 [compound 1021]	1.54**

Same assay, conditions: method *: HPLC reversed-phase C18, 40° C., 0.1% aqueous formic acid and acetonitrile, linear gradient 10% to 95% acetonitrile

SMILES	logP
CC(C)(C)C(=O)Cc1ccc(Nc2ncc(Br)c(NCC3CC3)n2)cc1 [compound 455]	2.48*
O=S(=O)(c1cccc(Nc2ncc(Br)c(NCC3CC3)n2)c1)N1CCCCC1 [compound 454]	2.29*
CC(C)(C)OC(=O)N1CCN(c2ccc(Nc3ncc(Cl)c(NC4CC4)n3)cc2)CC1 [compound 7]	2.4*
Cc1ccc(Nc2ncc(Br)c(NC3CC3)n2)cc1O [compound 366]	1.46*
O=S(=O)(Cc1cccc(Nc2ncc(Cl)c(NC3CC3)n2)c1)NC1CC1 [compound 372]	1.59*
CC(=O)Nc1ccc(Nc2ncc(Br)c(NC3CC3)n2)cc1Cl [compound 379]	1.64*
Clc1cnc(Nc2ccc3[nH]ccc3c2)nc1NC1CC1 [Example 71]	1.47*
COc1cc(Nc2ncc(C)c(NC3CC3)n2)cc(OC)c1OC [compound 52]	1.47*
O=C(NCc1ccc(Nc2ncc(Cl)c(NC3CC3)n2)cc1)OCc1ccccc1 [Example 95]	2.2*
O=C1OCCN1c1ccc(Nc2ncc(Cl)c(NC3CC3)n2)cc1 [compound 83]	1.39*
Cc1cnc(Nc2cccc(Cl)c2)nc1NC1CC1 [compound 57]	1.8*

Same assay, conditions: method *: HPLC reversed-phase C 18, temperature 40° C.; mobile phase 0.1% aqueous formic acid and acetonitrile; linear gradient 10% to 95% acetonitrile

SMILES	logP
CC(C)c1cccc(Nc2ncc(Cl)c(NC3CC3)n2)c1 [compound 633]	2.63*
CCOC(=O)Nc1ccc(Nc2ncc(F)c(NC3CC3)n2)cc1 [compound 595]	1.46*
CSc1cccc(Nc2ncc(F)c(NC3CC3)n2)c1 [compound 586]	1.73*
C#Cc1cccc(Nc2ncc(C(F)(F)F)c(NC3CC3)n2)c1 [compound 627]	3.36*
COC(=O)Nc1cccc(Nc2ncc(F)c(NC3CC3)n2)c1 [compound 598]	1.37*
COc1cccc(Nc2ncc(C(F)(F)F)c(NC3CC3)n2)c1 [compound 640]	2.73*
CN1CCN(c2cccc(Nc3ncc(Cl)c(NCC4CC4)n3)c2)C1=O [compound 618]	1.58*
COc1ccc(Nc2ncc(C(F)(F)F)c(NC3CC3)n2)cc1 [compound 641]	2.21*;

Same assay, conditions: method *: HPLC, reversed-phase C 18, 40° C., mobile phase 0.1% aqueous formic acid and acetonitrile, linear gradient from 10% to 95% acetonitrile

SMILES	logP
CC(C)Oc1ccc(Nc2ncc(Cl)c(NC3CC3)n2)cc1 [compound 989]	1.97*
Cc1cccc(Nc2ncc(Cl)c(NCC3CC3)n2)c1 [compound 1051]	2.09*
CCN(CC)C(=O)c1cccc(Nc2ncc(C(F)(F)F)c(NC3CC3)n2)c1 [compound 1049]	2.71*
CCNC(=O)c1cccc(Nc2ncc(C(F)(F)F)c(NC3CC3)n2)c1 [compound 1031]	2.07*
CCCCSc1cccc(Nc2ncc(Cl)c(NC3CC3)n2)c1 [compound 1054]	3.78*
CSc1cccc(Nc2ncc(Cl)c(NC3CC3(C)C)n2)c1 (stereo not shown) [compound 1029]	3.07*;
